Source: patent US6914045B2, “Glycopeptide antibiotics” (Wyeth Holdings Corporation, priority 2001, dated 2005)

What was measured:
Assay in all cases: in vitro antibacterial evaluation, MIC by broth dilution
Format in all cases: cell-based
Escherichia coli = details: 18 hours at 35° C.
Staphylococcus sp. = details: broth dilution, 18 hours at 35° C.
In short: (§1)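 Read-out: the lowest concentration at which the test strain fails to grow. Serial dilutions (64-0.06 μg/mL) in Muller-Hinton II […], 5×10^5 CFU/mL inoculum, NCCLS M7-A2 procedure.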

Enterococcus sp. = details: broth dilution, 18 hours at 35° C.
In short: as §1

Streptococcus sp. = details: broth dilution, 18 hours at 35° C.
In short: as §1

CC(c1ccccc1)C1NC(=O)CNC(=O)C(CO)NC(=O)C(C(O)C2CNC(=N)N2C2OC(CO)C(O)C3OC(C)(C)OC32)NC(=O)C(C(O)C2CNC(=N)N2)NC(=O)C(Cc2ccc(OC3OC(CO)C(OC4OC5COC(C)(C)OC5C5OC(C)(C)OC45)C4OC(C)(C)OC34)cc2)NC1=O (stereo not shown) [Example 229b]
32 µg/mL: MIC Escherichia coli (GC 4560) (Escherichia coli)
128 µg/mL: MIC Enterococcus faecalis (GC 2242) (Enterococcus sp.) | MIC Enterococcus faecalis (GC 4553) (Enterococcus sp.) | MIC Enterococcus faecium (GC 4557) (Enterococcus sp.) | MIC Enterococcus faecalis (GC 2242) (Enterococcus sp.; inoculum 5×10^5 CFU/mL, strain GC 2242) | MIC Enterococcus faecalis (GC 4553) (Enterococcus sp.; inoculum 5×10^5 CFU/mL, strain GC 4553) | MIC Enterococcus faecium (GC 4557) (Enterococcus sp.; inoculum 5×10^5 CFU/mL, strain GC 4557) | MIC Streptococcus pneumoniae (ATCC 6301) (Streptococcus sp.) | MIC Streptococcus pneumoniae (GC 1894) (Streptococcus sp.) | MIC Streptococcus pneumoniae (GC 4565) (Streptococcus sp.) | MIC Streptococcus pneumoniae (ATCC 6301) (Streptococcus sp.; inoculum 5×10^5 CFU/mL, strain ATCC 6301) | MIC Streptococcus pneumoniae (GC 1894) (Streptococcus sp.; inoculum 5×10^5 CFU/mL, strain GC 1894) | MIC Streptococcus pneumoniae (GC 4565) (Streptococcus sp.; inoculum 5×10^5 CFU/mL, strain GC 4565)
>128 µg/mL: MIC Escherichia coli (ATCC 25922) (Escherichia coli) | MIC Escherichia coli (GC 4559) (Escherichia coli) | MIC Coagulase Negative Staphylococcus (GC 4547) (Staphylococcus sp.) | MIC Coagulase Negative Staphylococcus (GC 4548) (Staphylococcus sp.) | MIC Coagulase Negative Staphylococcus (GC 4549) (Staphylococcus sp.) | MIC Coagulase Negative Staphylococcus (GC 4551) (Staphylococcus sp.) | MIC Coagulase Negative Staphylococcus (GC 6257) (Staphylococcus sp.) | MIC Staphylococcus aureus (ATCC 29213) (Staphylococcus sp.) | MIC Staphylococcus aureus (GC 1131) (Staphylococcus sp.) | MIC Staphylococcus aureus (GC 3051) (Staphylococcus sp.) | MIC Staphylococcus aureus (GC 3053) (Staphylococcus sp.) | MIC Staphylococcus aureus (GC 4541) (Staphylococcus sp.) | MIC Staphylococcus aureus (GC 4542) (Staphylococcus sp.) | MIC Staphylococcus aureus (GC 4544) (Staphylococcus sp.) | MIC Staphylococcus aureus (GC 4545) (Staphylococcus sp.) | MIC Staphylococcus aureus-SMITH (GC 4543) (Staphylococcus sp.) | MIC Staphylococcus haemolyticus (GC 4546) (Staphylococcus sp.) | MIC Staphylococcus aureus (ATCC 29213) (Staphylococcus sp.; strain ATCC 29213) | MIC Staphylococcus aureus (GC 1131) (Staphylococcus sp.; strain GC 1131) | MIC Staphylococcus aureus (GC 3051) (Staphylococcus sp.; strain GC 3051) | MIC Staphylococcus aureus (GC 3053) (Staphylococcus sp.; strain GC 3053) | MIC Staphylococcus aureus (GC 4541) (Staphylococcus sp.; strain GC 4541) | MIC Staphylococcus aureus (GC 4542) (Staphylococcus sp.; strain GC 4542) | MIC Staphylococcus aureus-SMITH (GC 4543) (Staphylococcus sp.; strain GC 4543) | MIC Staphylococcus aureus (GC 4544) (Staphylococcus sp.; strain GC 4544) | MIC Staphylococcus aureus (GC 4545) (Staphylococcus sp.; strain GC 4545) | MIC Staphylococcus haemolyticus (GC 4546) (Staphylococcus sp.; strain GC 4546) | MIC Coagulase Negative Staphylococcus (GC 4547) (Staphylococcus sp.; strain GC 4547) | MIC Coagulase Negative Staphylococcus (GC 4548) (Staphylococcus sp.; strain GC 4548) | MIC Coagulase Negative Staphylococcus (GC 4549) (Staphylococcus sp.; strain GC 4549) | MIC Coagulase Negative Staphylococcus (GC 4551) (Staphylococcus sp.; strain GC 4551) | MIC Coagulase Negative Staphylococcus (GC 6257) (Staphylococcus sp.; strain GC 6257) | MIC Enterococcus faecalis (ATCC 29212) (Enterococcus sp.) | MIC Enterococcus faecalis (GC 2691) (Enterococcus sp.) | MIC Enterococcus faecalis (GC 3059) (Enterococcus sp.) | MIC Enterococcus faecalis (GC 4552) (Enterococcus sp.) | MIC Enterococcus faecalis (GC 4554) (Enterococcus sp.) | MIC Enterococcus faecalis (GC 6189) (Enterococcus sp.) | MIC Enterococcus faecium (GC 2243) (Enterococcus sp.) | MIC Enterococcus faecium (GC 4556) (Enterococcus sp.) | MIC Enterococcus faecalis (ATCC 29212) (Enterococcus sp.; inoculum 5×10^5 CFU/mL, strain ATCC 29212) | MIC Enterococcus faecium (GC 2243) (Enterococcus sp.; inoculum 5×10^5 CFU/mL, strain GC 2243) | MIC Enterococcus faecalis (GC 2691) (Enterococcus sp.; inoculum 5×10^5 CFU/mL, strain GC 2691) | MIC Enterococcus faecalis (GC 3059) (Enterococcus sp.; inoculum 5×10^5 CFU/mL, strain GC 3059) | MIC Enterococcus faecalis (GC 4552) (Enterococcus sp.; inoculum 5×10^5 CFU/mL, strain GC 4552) | MIC Enterococcus faecalis (GC 4554) (Enterococcus sp.; inoculum 5×10^5 CFU/mL, strain GC 4554) | MIC Enterococcus faecium (GC 4556) (Enterococcus sp.; inoculum 5×10^5 CFU/mL, strain GC 4556) | MIC Enterococcus faecalis (GC 6189) (Enterococcus sp.; inoculum 5×10^5 CFU/mL, strain GC 6189) | MIC Streptococcus agalactiae (GC 4564) (Streptococcus sp.) | MIC Streptococcus pyogenes (GC 4563) (Streptococcus sp.) | MIC Streptococcus pyogenes (GC 4563) (Streptococcus sp.; inoculum 5×10^5 CFU/mL, strain GC 4563) | MIC Streptococcus agalactiae (GC 4564) (Streptococcus sp.; inoculum 5×10^5 CFU/mL, strain GC 4564)
64 µg/mL: MIC Enterococcus avium (GC 4558) (Enterococcus sp.) | MIC Enterococcus avium (GC 4558) (Enterococcus sp.; inoculum 5×10^5 CFU/mL, strain GC 4558)
